Data from patent US20170014432A1, “COMPOSITIONS AND METHODS FOR REDUCING CHRONIC LOW-LEVEL INFLAMMATION” (priority 2014, published 2017).

Tested on: delta-5-desaturase
Experiment: Two-week feeding study, AA/DGLA ratio in plasma
Format: in vivo, mice
Details: for Average % decrease in AA/DGLA Ratio in Plasma: mice, 36.7 mg/day sesamol palmitate in safflower oil by gavage, low-fat diet
Experimental: To determine the ability of a sesamol derivative of the present invention to inhibit the formation of arachidonic acid, a two-week feeding study was done with two groups of mice with 8 mice in each group. We mixed 4.4 g of sesamol palmitate into 60 ml of safflower oil. This provided a concentration of sesamol palmitate of 73.3 mg/ml. The mice in the sesamol group received 500 μl each day (36.7 mg) via gavage of the sesamol palmitate compound in safflower oil whereas the control group received 500 μl of the safflower oil control. Both groups were maintained on a low-fat diet. 200 μl of blood was drawn at three time points (0, 1, and 2 weeks) for analysis of the fatty acid composition in the plasma.
Since the sesamol derivative, sesamol palmitate, inhibits the enzyme delta-5-desaturase that converts dihomo gamma linolenic acid (DGLA) to arachidonic acid (AA), we choose to look at the decrease in the AA/DGLA ratio as an indication of efficacy of sesamol palmitate in inhibiting the key enzyme. The percent difference between the AA/DGLA ratio in each […] was determined at the starting point and at days 7 and 14. The percent differences in the AA/DGLA per each rat in the active and placebo groups were then averaged.

CCCCCCCCCCCCCCCC(=O)Oc1ccc2c(c1)OCO2 [Sesamol Palmitate]
Average % decrease in AA/DGLA Ratio in Plasma (Days 0-7): −25.4%
Average % decrease in AA/DGLA Ratio in Plasma (Days 0-14): −23.4%
Average decrease in the AA/DGLA ratio relative to placebo group (active group versus placebo group): approximately double
